Measurements reported in US11951094B2, “TLR2 modulator compounds, pharmaceutical compositions and uses thereof” (Axial Therapeutics, Inc., priority 2020, dated 2024).
Counter-ions that a name gives are not always drawn.

biological target: TLR2 (Homo sapiens, UniProt O60603); experiment: TLR2 agonist screening assay, HEK-Blue TLR2 reporter cell line (NF-kB-driven SEAP, absorbance at 600 nm); type: cell-based; set-up: host or cells: HEK-293 (HEK-Blue TLR2 reporter cell line); conditions: HEK-Blue TLR2 reporter cells, agonist mode; average of all runs (Table 3)
Sequence (O60603 21-784): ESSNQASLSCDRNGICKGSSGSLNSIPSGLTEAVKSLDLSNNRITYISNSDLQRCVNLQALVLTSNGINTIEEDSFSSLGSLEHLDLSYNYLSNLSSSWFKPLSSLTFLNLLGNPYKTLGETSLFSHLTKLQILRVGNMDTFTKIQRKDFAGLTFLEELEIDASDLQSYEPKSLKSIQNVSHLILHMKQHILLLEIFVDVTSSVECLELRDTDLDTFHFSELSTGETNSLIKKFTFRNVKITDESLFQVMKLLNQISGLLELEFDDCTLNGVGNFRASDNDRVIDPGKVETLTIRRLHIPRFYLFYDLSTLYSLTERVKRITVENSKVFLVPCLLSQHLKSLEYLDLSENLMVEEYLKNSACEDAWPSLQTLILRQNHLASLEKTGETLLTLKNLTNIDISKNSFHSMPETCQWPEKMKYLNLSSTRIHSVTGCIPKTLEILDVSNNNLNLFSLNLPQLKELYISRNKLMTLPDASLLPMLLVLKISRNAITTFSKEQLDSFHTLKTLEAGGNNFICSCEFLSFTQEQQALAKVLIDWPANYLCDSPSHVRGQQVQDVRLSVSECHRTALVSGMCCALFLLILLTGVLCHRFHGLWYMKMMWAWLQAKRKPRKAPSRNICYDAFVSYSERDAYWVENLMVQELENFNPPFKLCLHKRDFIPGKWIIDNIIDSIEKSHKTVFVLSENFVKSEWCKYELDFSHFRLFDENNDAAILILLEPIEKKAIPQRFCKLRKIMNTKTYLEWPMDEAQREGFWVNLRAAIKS
Procedure, shortened: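 Read-out: SEAP colour change, A600, after overnight agonist exposure. Cells: HEK-293 overexpressing TLR2, NF-kB-SEAP reporter, ~40,000/well, plated 16-24 h prior.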

Q: `CCCCCCCCCCCCCCNC(=O)C1CN(C(=O)c2ccc(C(=O)N3C[C@@H](C(=O)N[C@H]4C[C@@H]4c4ccccc4)[C@H](C(=O)N[C@H]4C[C@@H]4c4ccccc4)C3)cc2)CCO1` (some centres unmarked) [Compound 006] was tested. Which EC50 did it give?
A: 0.351 to 1 µM

Q: How did the EC50 turn out when `O=C(NC1CCCCCCC1)[C@H]1CCN(C(=O)c2ccc(C(=O)N3C[C@@H](C(=O)N[C@H]4C[C@@H]4c4ccccc4)[C@H](C(=O)N[C@H]4C[C@@H]4c4ccccc4)C3)cc2)C1` [Compound 003] was run?
A: > 1 µM

Q: With `CCCCCCCCN1CCN(C(=O)c2ccc(C(=O)N3C[C@@H](C(=O)N[C@H]4C[C@@H]4c4ccccc4)[C@H](C(=O)N[C@H]4C[C@@H]4c4ccccc4)C3)cc2)CC1C(=O)NCCCCCC` (stereo partly drawn) [Compound 018, (3S,4S)-1-(4-(3-(hexylcarbamoyl)-4-octylpiperazine-1-carbonyl)benzoyl)-N3,N4-bis((1S,2R)-2-phenylcyclopropyl)pyrrolidine-3,4-dicarboxamide formate] as the molecule, how does the EC50 read?
A: 0.351 to 1 µM

Q: For `CCCCCCN(CCCCCC)C(=O)[C@H]1CCN(C(=O)c2ccc(C(=O)N3C[C@@H](C(=O)N[C@H]4C[C@@H]4c4ccccc4)[C@H](C(=O)N[C@H]4C[C@@H]4c4ccccc4)C3)cc2)C1` [Compound 009], which EC50 is on record?
A: > 1 µM

Q: How did the EC50 turn out when `CCCCCCCC(=O)N1CCN(C(=O)c2ccc(C(=O)N3C[C@@H](C(=O)N[C@H]4C[C@@H]4c4ccccc4)[C@H](C(=O)N[C@H]4C[C@@H]4c4ccccc4)C3)cc2)C[C@H]1C(=O)NCCCCCC` [Compound 030] was run?
A: > 1 µM

Q: `CCCCCCCNC(=O)C1CN(C(=O)c2ccc(C(=O)N3C[C@@H](C(=O)N[C@H]4C[C@@H]4c4ccccc4)[C@H](C(=O)N[C@H]4C[C@@H]4c4ccccc4)C3)cc2)CCN1C(=O)CCCCCCC` (some centres unmarked) [Compound 058] was tested. Which EC50 did it give?
A: 0.051 to 0.35 µM

Q: For `CCCCCCCCNC(=O)C1CN(C(=O)c2ccc(C(=O)N3C[C@@H](C(=O)N[C@H]4C[C@@H]4c4ccccc4)[C@H](C(=O)N[C@H]4C[C@@H]4c4ccccc4)C3)cc2)CCN1C(=O)CCCCCCC` (stereo partly drawn) [Compound 065, (3S,4S)-1-(4-(4-octanoyl-3-(octylcarbamoyl)piperazine-1-carbonyl)benzoyl)-N3,N4-bis((1S,2R)-2-phenylcyclopropyl)pyrrolidine-3,4-dicarboxamide], which EC50 is on record?
A: 0.051 to 0.35 µM

same assay, conditions: HEK-Blue TLR2 reporter cells, agonist mode; average of all runs (Table 4)

Q: Which EC50 does the source give for `CCCCCCCCCCCCCCC(=O)N1CCC[C@@H](NC(=O)c2ccc(C(=O)N3C[C@@H](C(=O)N[C@H]4C[C@@H]4c4ccccc4)[C@H](C(=O)N[C@H]4C[C@@H]4c4ccccc4)C3)cc2)C1` [Compound 153, (3S,4S)-1-(4-(((R)-1-pentadecanoylpiperidin-3-yl)carbamoyl)benzoyl)-N3,N4-bis((1S,2R)-2-phenylcyclopropyl)pyrrolidine-3,4-dicarboxamide] here?
A: > 1 µM

Q: For `CCCCCCCCCC(=O)NC(Cn1cnc2ccc(C(=O)N3C[C@@H](C(=O)N[C@H]4C[C@@H]4c4ccccc4)[C@H](C(=O)N[C@H]4C[C@@H]4c4ccccc4)C3)cc2c1=O)C(=O)NCCCCCC` (stereo partly drawn) [Compound 248, (3S,4S)-1-(3-(2-decanamido-3-(hexylamino)-3-oxopropyl)-4-oxo-3,4-dihydroquinazoline-6-carbonyl)-N3,N4-bis((1S,2R)-2-phenylcyclopropyl)pyrrolidine-3,4-dicarboxamide], which EC50 is on record?
A: > 1 µM

Q: For `CCCCCCCCCCCCCCC(=O)NC1CCN(S(=O)(=O)c2ccc(C(=O)N3C[C@@H](C(=O)N[C@H]4C[C@@H]4c4ccccc4)[C@H](C(=O)N[C@H]4C[C@@H]4c4ccccc4)C3)cc2)CC1` [Compound 165, (3S,4S)-1-(4-((4-pentadecanamidopiperidin-1-yl)sulfonyl)benzoyl)-N3,N4-bis((1S,2R)-2-phenylcyclopropyl)pyrrolidine-3,4-dicarboxamide], which EC50 is on record?
A: > 1 µM

Q: With `CCCCCCCC(=O)N1CCN(S(=O)(=O)c2ccc(C(=O)N3C[C@@H](C(=O)N[C@H]4C[C@@H]4c4ccccc4)[C@H](C(=O)N[C@H]4C[C@@H]4c4ccccc4)C3)cc2)C[C@@H]1C(=O)NCCCCCC` [Compound 161, (3S,4S)-1-(4-(((R)-3-(hexylcarbamoyl)-4-octanoylpiperazin-1-yl)sulfonyl)benzoyl)-N3,N4-bis((1S,2R)-2-phenylcyclopropyl)pyrrolidine-3,4-dicarboxamide] as the molecule, how does the EC50 read?
A: > 1 µM

Q: How did the EC50 turn out when `CCCCCCCCCCCCNC(=O)N[C@H]1CN(C(c2ccc(C(=O)N3C[C@@H](C(=O)N[C@H]4C[C@@H]4c4ccccc4)[C@H](C(=O)N[C@H]4C[C@@H]4c4ccccc4)C3)cc2)C(F)(F)F)C[C@@H]1OC` (single isomer, unassigned) [Compound 233, (3S,4S)-1-(4-((S*)-1-((3S,4S)-3-(3-dodecylureido)-4-methoxypyrrolidin-1-yl)-2,2,2-trifluoroethyl)benzoyl)-N3,N4-bis((1S,2R)-2-phenylcyclopropyl)pyrrolidine-3,4-dicarboxamide] was run?
A: 0.0001 to 0.05 µM

Q: For `CCCCCCCCCCCCCCNC(=O)C[C@@H]1CCCN1C(=O)c1ccc(C(=O)N2C[C@@H](C(=O)N[C@H]3C[C@@H]3c3ccccc3)[C@H](C(=O)N[C@H]3C[C@@H]3c3ccccc3)C2)cc1` [Compound 135, (3S,4S)-1-(4-((S)-2-(2-oxo-2-(tetradecylamino)ethyl)pyrrolidine-1-carbonyl)benzoyl)-N3,N4-bis((1S,2R)-2-phenylcyclopropyl) pyrrolidine-3,4-dicarboxamide], which EC50 is on record?
A: > 1 µM

Q: `CCCCCCCC(=O)N1CCCN(C(=O)c2cccc(C(=O)N3C[C@@H](C(=O)N[C@H]4C[C@@H]4c4ccccc4)[C@H](C(=O)N[C@H]4C[C@@H]4c4ccccc4)C3)c2)C[C@H]1C(=O)NCCCCCC` (single isomer, unassigned) [Compound 190] was tested. Which EC50 did it give?
A: 0.351 to 1 µM

Q: With `CCCCCCCCCCCCCCNC(=O)[C@H]1CN(Cc2ccc(C(=O)N3C[C@@H](C(=O)N[C@H]4C[C@@H]4c4ccccc4)[C@H](C(=O)N[C@H]4C[C@@H]4c4ccccc4)C3)cc2)C(=O)CN1C` [Compound 092, (3S,4S)-1-(4-(((R)-4-methyl-2-oxo-5-(tetradecylcarbamoyl)piperazin-1-yl)methyl)benzoyl)-N3,N4-bis((1S,2R)-2-phenylcyclopropyl)pyrrolidine-3,4-dicarboxamide] as the molecule, how does the EC50 read?
A: 0.051 to 0.35 µM

Q: With `CCCCCCCCCCCCCCNC(=O)[C@H]1CN(C(=O)c2ccc(C(=O)N3C[C@@H](C(=O)N[C@H]4C[C@@H]4c4ccccc4)[C@H](C(=O)N[C@H]4C[C@@H]4c4ccccc4)C3)cc2)C[C@@H]1O` (single isomer, unassigned) [Compound 106, (3S,4S)-1-(4-((3S*,4R*)-3-hydroxy-4-(tetradecylcarbamoyl)pyrrolidine-1-carbonyl)benzoyl)-N3,N4-bis((1S,2R)-2-phenylcyclopropyl)pyrrolidine-3,4-dicarboxamide] as the molecule, how does the EC50 read?
A: 0.051 to 0.35 µM

Q: For `CCCCCCCCCCCCCCC(=O)N[C@@H]1CCN(Cc2ccc(C(=O)N3C[C@@H](C(=O)N[C@H]4C[C@@H]4c4ccccc4)[C@H](C(=O)N[C@H]4C[C@@H]4c4ccccc4)C3)cc2)C1=O` [Compound 126, (3S,4S)-1-(4-(((R)-2-oxo-3-pentadecanamidopyrrolidin-1-yl)methyl)benzoyl)-N3,N4-bis((1S,2R)-2-phenylcyclopropyl)pyrrolidine-3,4-dicarboxamide], which EC50 is on record?
A: > 1 µM

Q: How did the EC50 turn out when `CCCCCCCCCC(=O)N[C@@H](CN1Cc2ccc(C(=O)N3C[C@@H](C(=O)N[C@H]4C[C@@H]4c4ccccc4)[C@H](C(=O)N[C@H]4C[C@@H]4c4ccccc4)C3)cc2C1=O)C(=O)NCCCCCC` [Compound 241, (3S,4S)-1-(2-((S)-2-decanamido-3-(hexylamino)-3-oxopropyl)-3-oxoisoindoline-5-carbonyl)-N3,N4-bis((1S,2R)-2-phenylcyclopropyl)pyrrolidine-3,4-dicarboxamide] was run?
A: 0.051 to 0.35 µM

Q: For `CCCCCCCCCCCCCCC(=O)N[C@@H]1CN(C(=O)c2ccc(C(=O)N3C[C@@H](C(=O)N[C@H]4C[C@@H]4c4ccccc4)[C@H](C(=O)N[C@H]4C[C@@H]4c4ccccc4)C3)cc2)C[C@H]1OC` [Compound 154, (3S,4S)-1-(4-((3R,4R)-3-methoxy-4-pentadecanamidopyrrolidine-1-carbonyl)benzoyl)-N3,N4-bis((1S,2R)-2-phenylcyclopropyl) pyrrolidine-3,4-dicarboxamide], which EC50 is on record?
A: 0.351 to 1 µM

Q: For `CCCCCCCO[C@H]1CN(C(=O)c2ccc(C(=O)N3C[C@@H](C(=O)N[C@H]4C[C@@H]4c4ccccc4)[C@H](C(=O)N[C@H]4C[C@@H]4c4ccccc4)C3)cc2)C[C@@H]1NC(=O)NCCCCC` [Compound 156, (3S,4S)-1-(4-((3S,4S)-3-(heptyloxy)-4-(3-pentylureido)pyrrolidine-1-carbonyl)benzoyl)-N3,N4-bis((1S,2R)-2-phenylcyclopropyl)pyrrolidine-3,4-dicarboxamide], which EC50 is on record?
A: 0.051 to 0.35 µM

Q: `CCCCCCCCCCCCCCNC(=O)[C@H]1CN(C(=O)c2ccc(C(=O)N3C[C@@H](C(=O)N[C@H]4C[C@@H]4c4ccccc4)[C@H](C(=O)N[C@H]4C[C@@H]4c4ccccc4)C3)cc2)CCO1` [Compound 150, (3S,4S)—N3,N4-bis ((1S,2R)-2-phenylcyclopropyl)-1-(4-((R)-2-(tetradecylcarbamoyl)morpholine-4-carbonyl)benzoyl) pyrrolidine-3,4-dicarboxamide] was tested. Which EC50 did it give?
A: 0.051 to 0.35 µM

Q: With `CCCCCCNC(=O)[C@@H](CNC(=O)CCCCCC)NC(=O)c1ccc(C(=O)N2C[C@@H](C(=O)N[C@H]3C[C@@H]3c3ccccc3)[C@H](C(=O)N[C@H]3C[C@@H]3c3ccccc3)C2)cc1` [Compound 118, (3S,4S)-1-(4-(((R)-3-heptanamido-1-(hexylamino)-1-oxopropan-2-yl)carbamoyl)benzoyl)-N3,N4-bis((1S,2R)-2-phenylcyclopropyl) pyrrolidine-3,4-dicarboxamide] as the molecule, how does the EC50 read?
A: > 1 µM

Q: How did the EC50 turn out when `CCCCCCCCCCCCCNC(=O)N[C@H]1CN(c2nnc(-c3ccc(C(=O)N4C[C@@H](C(=O)N[C@H]5C[C@@H]5c5ccccc5)[C@H](C(=O)N[C@H]5C[C@@H]5c5ccccc5)C4)cc3)o2)C[C@@H]1OC` [Compound 260, (3S,4S)-1-(4-(5-((3S,4S)-3-methoxy-4-(3-tridecylureido)pyrrolidin-1-yl)-1,3,4-oxadiazol-2-yl)benzoyl)-N3,N4-bis((1S,2R)-2-phenylcyclopropyl)pyrrolidine-3,4-dicarboxamide] was run?
A: 0.0001 to 0.05 µM
